In brackets after ≈: the same amount, converted by molar mass. Where two headings read alike, the source gives them in different places. Values belong to the compound of their own block, whether it stands above or below them. Where a SMILES comes first, the peptide text is derived from it.
Key:
[1] = tested on: VS Enterococcus faecalis NCTC 775; assay: Antibacterial activity assay (broth microdilution MIC); assay type: cell-based; details: for MIC, Peptide concentration: Mueller-Hinton broth; for MIC on initial panels: VSE775, medium and unit not given, in µg/mL
[2] = tested on: MS Staphylococcus aureus ATCC 9144; assay type: cell-based; details: for MIC on initial panels / MIC: MSSA9144; for MIC on initial panels: medium and unit inferred; for MIC: untitled table, medium/unit not given, values match RPMI of Table 2, in µg/mL
[3] = tested on: EMR Staphylococcus aureus-15 (EMRSA-15); assay type: cell-based; details: for MIC on initial panels / MIC: EMRSA15; for MIC on initial panels: medium and unit inferred; for MIC: untitled table, medium/unit inferred, values match RPMI of Table 2
[4] = tested on: Pseudomonas aeruginosa PA01; assay: Antibacterial activity assay (broth microdilution MIC); assay type: cell-based; details: for MIC, Stability in serum (MH) / MIC on initial panels: in µg/mL; for MIC on initial panels: medium and unit not given
human red blood cells = assay: Haemolysis assay; details: red cells of human, 1 h
Experimental: Haemolysis assay. Haemolysis was tested by incubating titrations of AMPs in PBS with freshly collected human red blood cells for 1 hour at 37 C. Control wells were treated with 0.1% Triton-X-100 to ensure complete lysis, or PBS-only to represent no lysis. Samples were spun down to remove non-lysed cells and the OD^550 of the supernatant was measured using a Clariostar plate reader. The percentage of haemolysis was calculated as % haemolysis=(AP−AB)/(AC−AB)×100, where AP is the absorbance value for a known peptide concentration, AC is the absorbance of the 0.1% Triton-X-100 control, AB is the absorbance of the PBS control. Data presented are averages and standard error from three biological replicate experiments.
Methods: The natural AMP (termed AMP1) was modified to produce synthetic variants, AMPs 1a, 2a, 2b, 3a and 3b. Minimum inhibitory concentrations (MICs) were determined using the microbroth dilution assay with Mueller Hinton broth (MHB) or RPMI (with 5% FBS) and stability in serum was tested by conducting MICs in MHB containing 10% FBS. Synergy experiments were performed following a checkerboard protocol. Cytotoxicity was tested against HEK293 and HeLa immortalised human cell-lines using the XTT viability stain and by quantifying haemolysis of human red blood cells. Patch clamp analysis was performed using the Port-a-Patch® automated patch-clamp system on DPhPE/DPhPG (model for a Gram-negative plasma membrane) or DPhPG (Gram-positive) model membranes challenged with peptide. The murine lung infection model was performed using the agar bead model with Staphylococcus aureus strain NCTC 13616 (EMRSA-15).

[5] = tested on: Pseudomonas aeruginosa NCTC 13437; assay: Antibacterial activity assay (broth microdilution MIC); assay type: cell-based; details: PA13437, in µg/mL; for MIC on initial panels: medium and unit not given
HeLa = assay: Cytotoxicity assay (XTT); assay type: cell-based, human; parameters: Toxicity HeLa: unit not given beside the values; details: for Toxicity HeLa: unit not given; for Toxicity HeLa (EC50), Peptide concentration: value printed in parentheses
Experimental: Cytotoxicity assay. HeLa and HEK293 cell lines were purchased from ECACC and cultured in Eagle's Minimum Essential Media (EMEM) containing glutamine, supplemented with 10% FBS and 1× non-essential amino acids (NEAA) at 37° C., 10% CO2. Cytotoxicity was measured by incubating starter cultures of cells for 24 hours in a 96 well plate, gently removing the supernatant and replacing it with dilutions of peptides and controls, incubating for a further 24 hours and then staining of the cells with the second generation tetrazolium dye, XTT. […]

[6] = tested on: Acinetobacter baumannii ATCC 17978; assay type: cell-based; details: in µg/mL; for MIC / MIC on initial panels: AB17978; for MIC on initial panels: medium and unit not given; for MIC, Stability in serum (MH): Ab17978
[7] = tested on: Escherichia coli NCTC 12923; assay type: cell-based; details: EC12923; for MIC / MIC on initial panels: in µg/mL; for MIC on initial panels: medium and unit not given
[8] = tested on: Acinetobacter baumannii AYE; assay type: cell-based; details: AYE; for MIC / MIC on initial panels: in µg/mL; for MIC on initial panels: medium and unit not given
[9] = tested on: VR Enterococcus faecium NCTC 12204; assay: Antibacterial activity assay (broth microdilution MIC); assay type: cell-based; details: VRE12204, in µg/mL; for MIC on initial panels: medium and unit not given; for MIC: untitled table, medium/unit not given, values match RPMI of Table 2
[10] = untitled table, medium/unit inferred, values match RPMI of Table 2
[11] = untitled table, medium/unit not given, values match RPMI of Table 2

MIC, Peptide concentration [1]: 32 (NG) μg/ml
MIC on initial panels [1]: 32
MIC on initial panels [2]: 2 mg/L (≈ 0.738 µM)
MIC [2]: 0.5
MIC, Peptide concentration ([3]; EMR -15 (EMRSA-15)): 1 mg/L (≈ 0.369 µM)
MIC on initial panels [3]: 16 mg/L (≈ 5.9 µM)
MIC [3]: 1 mg/L (≈ 0.369 µM)
MIC, Peptide concentration ([3]; Mueller-Hinton broth): 16 mg/L (≈ 5.9 µM)
MIC ([4]; (MH)): 2 mg/L (≈ 0.738 µM)
MIC ([4]; (RPMI)): 16 mg/L (≈ 5.9 µM)
MIC, Stability in serum (MH) ([4]; No serum): 2
MIC, Stability in serum (MH) ([4]; Serum (10% fetal bovine serum)): 4
MIC on initial panels [4]: 2
MIC [4, 10]: 16 mg/L (≈ 5.9 µM)
MIC ([5]; (MH)): 8
MIC ([5]; (RPMI)): 16-32
MIC, Stability in serum (MH) ([5]; No serum): 8
MIC, Stability in serum (MH) ([5]; Serum (10% fetal bovine serum)): 16
MIC on initial panels [5]: 8
MIC [5, 11]: 16-32
MIC ([6]; (MH)): 1
MIC ([6]; (RPMI)): 8
MIC on initial panels [6]: 1
MIC [6, 11]: 8
MIC, Stability in serum (MH) ([6]; No serum): 1
MIC, Stability in serum (MH) ([6]; Serum (10% fetal bovine serum)): 0.5
MIC ([7]; (MH)): 1
MIC ([7]; (RPMI)): 2-4
MIC, Stability in serum (MH) ([7]; No serum): 1 mg/L (≈ 0.369 µM)
MIC, Stability in serum (MH) ([7]; Serum (10% fetal bovine serum)): 0.5 mg/L (≈ 0.184 µM)
MIC on initial panels [7]: 1
MIC [7, 11]: 2-4
MIC ([8]; (MH)): 1
MIC ([8]; (RPMI)): 2
MIC, Stability in serum (MH) ([8]; No serum): 2 mg/L (≈ 0.738 µM)
MIC, Stability in serum (MH) ([8]; Serum (10% fetal bovine serum)): 2 mg/L (≈ 0.738 µM)
MIC on initial panels [8]: 1
MIC [8, 11]: 2
MIC on initial panels [9]: 16
MIC [9]: 4
Structure (SMILES): CC(C)C[C@@H](NC(=O)[C@@H](Cc1ccc(O)cc1)NC(=O)[C@@H](Cc1c[nH]cn1)NC(=O)[C@H](NC(=O)[C@@H](CC(C)C)NC(=O)[C@@H](C)NC(=O)[C@@H](C)NC(=O)[C@@H](CCCCN)NC(=O)CNC(=O)[C@H](NC(=O)[C@@H](Cc1c[nH]cn1)NC(=O)[C@@H](CCCCN)NC(=O)CNC(=O)[C@H](NC(=O)[C@@H](Cc1c[nH]cn1)NC(=O)[C@@H](C)NC(=O)[C@@H](C)NC(=O)[C@@H](CCCCN)NC(=O)[C@@H](CCCCN)NC(=O)[C@@H](Cc1ccccc1)NC(=O)[C@@H](Cc1ccccc1)NC(=O)[C@@H](CO)NC(=O)CNC(=O)[C@@H](Cc1c[nH]c2ccccc12)NC(=O)CN)C(C)C)C(C)C)[C@H](C)O)C(N)=O [D-pleurocidin] (HELM PEPTIDE1{G.[dW].G.[dS].[dF].[dF].[dK].[dK].[dA].[dA].[dH].[dV].G.[dK].[dH].[dV].G.[dK].[dA].[dA].[dL].[dT].[dH].[dY].[dL].[am]}$$$$V2.0; N-terminus assumed)
Toxicity HC50, Peptide concentration (human red blood cells): >400 µg/mL
Toxicity HeLa (HeLa): 47.1 ± 2.1
Toxicity HeLa (EC50), Peptide concentration (HeLa): (47.1 ± 2.1) μg/ml

MIC, Peptide concentration [1]: 64 (NG) μg/ml
MIC on initial panels [1]: 64
MIC, Peptide concentration ([2]; ATCC 9144): 2 mg/L (≈ 0.738 µM)
MIC on initial panels [2]: 4 mg/L (≈ 1.48 µM)
MIC [2]: 2
MIC on initial panels [3]: 16 mg/L (≈ 5.9 µM)
MIC [3]: 4 mg/L (≈ 1.48 µM)
MIC ([4]; (MH)): 64 mg/L (≈ 23.6 µM)
MIC ([4]; (RPMI)): > 32 mg/L
MIC, Stability in serum (MH) ([4]; No serum): 16
MIC, Stability in serum (MH) ([4]; Serum (10% fetal bovine serum)): 32
MIC on initial panels [4]: 64
MIC [4, 10]: > 32 mg/L
MIC ([5]; (MH)): 16-32
MIC ([5]; (RPMI)): >32
MIC, Stability in serum (MH) ([5]; No serum): 16
MIC, Stability in serum (MH) ([5]; Serum (10% fetal bovine serum)): 32
MIC on initial panels [5]: 16-32
MIC [5, 11]: >32
MIC ([6]; (MH)): 1-2
MIC ([6]; (RPMI)): 8
MIC on initial panels [6]: 1-2
MIC [6, 11]: 8
MIC, Stability in serum (MH) ([6]; No serum): 2
MIC, Stability in serum (MH) ([6]; Serum (10% fetal bovine serum)): 2
MIC ([7]; (MH)): 1-2
MIC ([7]; (RPMI)): 16
MIC, Stability in serum (MH) ([7]; No serum): 2 mg/L (≈ 0.738 µM)
MIC, Stability in serum (MH) ([7]; Serum (10% fetal bovine serum)): 1 mg/L (≈ 0.369 µM)
MIC on initial panels [7]: 1-2
MIC [7, 11]: 16
MIC ([8]; (MH)): 1-2
MIC ([8]; (RPMI)): 4-8
MIC, Stability in serum (MH) ([8]; No serum): 2 mg/L (≈ 0.738 µM)
MIC, Stability in serum (MH) ([8]; Serum (10% fetal bovine serum)): 2 mg/L (≈ 0.738 µM)
MIC on initial panels [8]: 1-2
MIC [8, 11]: 4-8
MIC on initial panels [9]: 16-32
MIC [9]: 32
Structure (SMILES): CC(C)C[C@H](NC(=O)[C@H](Cc1ccc(O)cc1)NC(=O)[C@H](Cc1c[nH]cn1)NC(=O)[C@@H](NC(=O)[C@H](CC(C)C)NC(=O)[C@H](C)NC(=O)[C@H](C)NC(=O)[C@H](CCCCN)NC(=O)CNC(=O)[C@@H](NC(=O)[C@H](Cc1c[nH]cn1)NC(=O)[C@H](CCCCN)NC(=O)CNC(=O)[C@@H](NC(=O)[C@H](Cc1c[nH]cn1)NC(=O)[C@H](C)NC(=O)[C@H](C)NC(=O)[C@H](CCCCN)NC(=O)[C@H](CCCCN)NC(=O)[C@H](Cc1ccccc1)NC(=O)[C@H](Cc1ccccc1)NC(=O)[C@H](CO)NC(=O)CNC(=O)[C@H](Cc1c[nH]c2ccccc12)NC(=O)CN)C(C)C)C(C)C)[C@@H](C)O)C(N)=O [Pleurocidin, reference compound] (H-GWGSFFKKAAHVGKHVGKAALTHYL-NH2; N-terminus assumed)
Toxicity HC50, Peptide concentration (human red blood cells): ~400 µg/mL
Toxicity HeLa (HeLa): 58.2 ± 3.9
Toxicity HeLa (EC50), Peptide concentration (HeLa): (58.2 ± 3.9) μg/ml
